From patent publication US11767341B2, “Lincosamide antibiotics and uses thereof” (President and Fellows of Harvard College, priority 2017, dated 2023)
Values after ≈ are worked out from the molar mass of the structure shown. Like-named read-outs stand apart in the source and are kept apart here.

Assays:
Test in all cases: MIC determination
Format in all cases: cell-based
[1] = system: E. faecalis MMX 847 Macrolide-Resistant; conditions: Enterococcus faecalis, read-out: MIC
[2] = system: S. pyogenes MMX 946 Macrolide-Resistant; conditions: Streptococcus pyogenes
S. aureus ATCC 29213 = system: S. aureus ATCC 29213
E. faecalis ATCC 29212 = conditions: Enterococcus faecalis
K. pneumoniae ATCC 10031 = conditions: Klebsiella pneumoniae, ATCC10031
S. aureus MMX 3035 cErmA = conditions: Staphylococcus aureus, MMX3035CERMA; S. aureus MMX 3035 cErmA; read-out: MIC
S. pneumoniae ATCC 49619 = conditions: Streptococcus pneumoniae, ATCC49619
[3] = system: E. coli MP-74 LptD mutant
S. aureus BAA 977 iErmA = conditions: Staphylococcus aureus, BAA977
E. coli MP-9 ΔTolC = system: E. coli MP-9 ΔTolC
S. pyogenes ATCC 19615 = conditions: S. pyogenes ATCC 19615
[4] = system: S. pneumoniae MMX 3028 cErmB; conditions: Streptococcus pneumoniae, MMX3028CERMB
[5] = system: S. pneumoniae MMX 3031 cMefA; conditions: Streptococcus pneumoniae, MMX3031CMEFA
[6] = system: S. aureus MP-549 msr(a) USA 300; conditions: Staphylococcus aureus, USA300, S. aureus MP-549 msr(a) USA 300
E. coli ATCC 25922 = conditions: Escherichia coli
H. influenzae ATCC 49247 = system: H. influenzae ATCC 49247
[7] = Staphylococcus aureus, ATCC29213, S. aureus ATCC 29213, read-out: MIC
[8] = S. pneumoniae ATCC 49619, read-out: MIC
[9] = Streptococcus pyogenes, ATCC19615, read-out: MIC
[10] = Haemophilus influenzae, ATCC49247
[11] = Staphylococcus aureus, ATCC29213
[12] = K. pneumoniae ATCC 10031, read-out: MIC
[13] = ATCC25922, E. coli ATCC 25922, read-out: MIC
[14] = Haemophilus influenzae, ATCC49247, H. influenzae ATCC 49247, read-out: MIC
[15] = S. pyogenes MMX 946 MacRes, read-out: MIC
[16] = S. pneumoniae MMX 3028 cErmB, read-out: MIC

SMILES	MIC (S. aureus ATCC 29213; [7])	MIC (E. faecalis ATCC 29212; ATCC29212, read-out: MIC)	MIC (K. pneumoniae ATCC 10031)	MIC (S. aureus MMX 3035 cErmA)	MIC (S. pneumoniae ATCC 49619; [8])	MIC ([3]; Escherichia coli)	MIC (S. aureus BAA 977 iErmA)	MIC (E. coli MP-9 ΔTolC; Escherichia coli)	MIC (S. pyogenes ATCC 19615; [9])	MIC [5]	MIC (E. faecalis ATCC 29212; ATCC29212)	MIC [6]	MIC (H. influenzae ATCC 49247; [10])	MIC (K. pneumoniae ATCC 10031; [12])	MIC (E. coli ATCC 25922; [13])	MIC ([1]; E. faecalis MMX 847 MacRes)	further results
CSC1O[C@H]([C@H](NC(=O)[C@H]2NC[C@@H]3C[C@@H](c4ccc(C(F)(F)F)cc4)CCO[C@H]32)[C@H](C)Cl)C(O)[C@@H](O)[C@H]1O (stereo partly drawn) [FSA-509019]	≤ 0.06 mg/L	1 mg/L (≈ 1.72 µM)	16 mg/L (≈ 27.4 µM)	64 mg/L (≈ 110 µM)	≤ 0.06 mg/L	32 mg/L (≈ 54.9 µM)	0.25 mg/L (≈ 0.429 µM)	16 mg/L (≈ 27.4 µM)	≤ 0.06 mg/L	0.125 mg/L (≈ 0.214 µM)							MIC ([1]; E. faecalis MMX 847 Macrolide-Resistant (MacRes)): 64 mg/L (≈ 110 µM); MIC [2]: 32 mg/L (≈ 54.9 µM); MIC [4]: 16 mg/L (≈ 27.4 µM)
CSC1O[C@H]([C@H](NC(=O)[C@H]2NC[C@@H]3CC(NCc4cccc(F)c4)CCO[C@H]32)[C@H](C)Cl)C(O)[C@@H](O)[C@H]1O (stereo partly drawn) [FSA-510073]	16 mg/L (≈ 28.5 µM)		> 64 mg/L		8 mg/L (≈ 14.2 µM)	> 64 mg/L		> 64 mg/L	2 mg/L (≈ 3.56 µM)		> 64 mg/L	16 mg/L (≈ 28.5 µM)	> 64 mg/L				MIC (E. coli ATCC 25922; ATCC25922): > 64 mg/L
CSC1O[C@H]([C@H](NC(=O)[C@H]2NC[C@@H]3CC(NCc4ccc(F)cc4)CCO[C@H]32)[C@H](C)Cl)C(O)[C@@H](O)[C@H]1O (stereo partly drawn) [FSA-510074]	64 mg/L (≈ 114 µM)		> 64 mg/L		32 mg/L (≈ 56.9 µM)	> 64 mg/L		> 64 mg/L	8 mg/L (≈ 14.2 µM)		> 64 mg/L	64 mg/L (≈ 114 µM)	> 64 mg/L				MIC (E. coli ATCC 25922; ATCC25922): > 64 mg/L
CSC1O[C@H]([C@H](NC(=O)[C@H]2NC[C@@H]3CC(c4ccc(C)cc4)=CCO[C@H]32)[C@H](C)Cl)C(O)[C@@H](O)[C@H]1O (stereo partly drawn) [FSA-511019]		4 mg/L (≈ 7.59 µM)			0.25 mg/L (≈ 0.474 µM)	64 mg/L (≈ 121 µM)		32 mg/L (≈ 60.7 µM)	0.125 mg/L (≈ 0.237 µM)			0.5 mg/L (≈ 0.949 µM)	64 mg/L (≈ 121 µM)	> 64 mg/L	> 64 mg/L		MIC (S. aureus ATCC 29213; [11]): 0.5 mg/L (≈ 0.949 µM)
COc1ccc(C2=CCO[C@@H]3[C@H](CN[C@@H]3C(=O)N[C@H]([C@H](C)Cl)[C@H]3OC(SC)[C@H](O)[C@H](O)C3O)C2)cc1 (stereo partly drawn) [FSA-511020]	0.5 mg/L (≈ 0.921 µM)	4 mg/L (≈ 7.37 µM)			≤ 0.06 mg/L	64 mg/L (≈ 118 µM)		64 mg/L (≈ 118 µM)	≤ 0.06 mg/L			1 mg/L (≈ 1.84 µM)	64 mg/L (≈ 118 µM)	> 64 mg/L	> 64 mg/L		
CSC1O[C@H]([C@H](NC(=O)[C@H]2NC[C@@H]3CC(c4ccc(C#N)cc4)=CCO[C@H]32)[C@H](C)Cl)C(O)[C@@H](O)[C@H]1O (stereo partly drawn) [FSA-511033]	0.5 mg/L (≈ 0.929 µM)	2 mg/L (≈ 3.72 µM)	64 mg/L (≈ 119 µM)		≤ 0.06 mg/L	64 mg/L (≈ 119 µM)		32 mg/L (≈ 59.5 µM)	≤ 0.06 mg/L			1 mg/L (≈ 1.86 µM)	64 mg/L (≈ 119 µM)		> 64 mg/L		
CSC1O[C@H]([C@H](NC(=O)[C@H]2NC[C@@H]3CC(c4ccc(C)cc4)CCO[C@H]32)[C@H](C)Cl)C(O)[C@@H](O)[C@H]1O (stereo partly drawn) [FSA-511044]	0.25 mg/L (≈ 0.473 µM)	2 mg/L (≈ 3.78 µM)				16 mg/L (≈ 30.2 µM)		16 mg/L (≈ 30.2 µM)	≤ 0.06 mg/L			0.5 mg/L (≈ 0.945 µM)	16 mg/L (≈ 30.2 µM)	32 mg/L (≈ 60.5 µM)	> 64 mg/L		MIC (S. pneumoniae ATCC 49619): 0.5 mg/L (≈ 0.945 µM)
COc1ccc(C2CCO[C@@H]3[C@H](CN[C@@H]3C(=O)N[C@H]([C@H](C)Cl)[C@H]3OC(SC)[C@H](O)C(O)C3O)C2)cc1 (stereo partly drawn) [FSA-511045]		1 mg/L (≈ 1.83 µM)			≤ 0.06 mg/L	32 mg/L (≈ 58.7 µM)		8 mg/L (≈ 14.7 µM)	≤ 0.06 mg/L			0.25 mg/L (≈ 0.459 µM)		16 mg/L (≈ 29.4 µM)	> 64 mg/L		MIC (S. aureus ATCC 29213; [11]): 0.5 mg/L (≈ 0.917 µM); MIC (H. influenzae ATCC 49247; [14]): 16 mg/L (≈ 29.4 µM)
CSC1O[C@H]([C@H](NC(=O)[C@H]2NC[C@@H]3C[C@@H](c4ccc(C#N)cc4)CCO[C@H]32)[C@H](C)Cl)C(O)[C@@H](O)[C@H]1O (stereo partly drawn) [FSA-511046]		1 mg/L (≈ 1.85 µM)	16 mg/L (≈ 29.6 µM)		≤ 0.06 mg/L	32 mg/L (≈ 59.3 µM)		8 mg/L (≈ 14.8 µM)	≤ 0.06 mg/L			0.5 mg/L (≈ 0.926 µM)	16 mg/L (≈ 29.6 µM)		> 64 mg/L		MIC (S. aureus ATCC 29213; S. aureus ATCC 29213): 1 mg/L (≈ 1.85 µM)
COc1ccc([C@H]2CCO[C@@H]3[C@H](CN[C@@H]3C(=O)N[C@H]([C@H](C)Cl)[C@H]3OC(SC)[C@H](O)[C@H](O)C3O)C2)cc1 (stereo partly drawn) [FSA-512080b]	0.12 mg/L (≈ 0.22 µM)			64 mg/L (≈ 117 µM)	≤ 0.06 mg/L	8 mg/L (≈ 14.7 µM)	0.25 mg/L (≈ 0.459 µM)	4 mg/L (≈ 7.34 µM)	≤ 0.06 mg/L	≤ 0.06 mg/L	0.5 mg/L (≈ 0.917 µM)	0.5 mg/L (≈ 0.917 µM)			128 mg/L (≈ 235 µM)	64 mg/L (≈ 117 µM)	MIC [2, 15]: 16 mg/L (≈ 29.4 µM); MIC (H. influenzae ATCC 49247; [14]): 16 mg/L (≈ 29.4 µM); MIC [4, 16]: 4 mg/L (≈ 7.34 µM)
COc1ccc([C@@H]2CCO[C@@H]3[C@H](CN[C@@H]3C(=O)N[C@H]([C@H](C)Cl)[C@H]3OC(SC)[C@H](O)[C@H](O)C3O)C2)cc1 (stereo partly drawn) [FSA-512080c]	0.25 mg/L (≈ 0.459 µM)	2 mg/L (≈ 3.67 µM)		128 mg/L (≈ 235 µM)	≤ 0.06 mg/L	32 mg/L (≈ 58.7 µM)	0.5 mg/L (≈ 0.917 µM)	8 mg/L (≈ 14.7 µM)	≤ 0.06 mg/L	0.12 mg/L (≈ 0.22 µM)		0.5 mg/L (≈ 0.917 µM)	32 mg/L (≈ 58.7 µM)		> 128 mg/L	128 mg/L (≈ 235 µM)	MIC [2, 15]: 64 mg/L (≈ 117 µM); MIC [4, 16]: 16 mg/L (≈ 29.4 µM)
CSC1O[C@H]([C@H](NC(=O)[C@H]2NC[C@@H]3C[C@@H](c4ccc(C#N)cc4)CCO[C@H]32)[C@H](C)Cl)C(O)[C@@H](O)[C@H]1O (stereo partly drawn) [FSA-512081a]				128 mg/L (≈ 237 µM)			1 mg/L (≈ 1.85 µM)			< 0.06 mg/L	0.5 mg/L (≈ 0.926 µM)					64 mg/L (≈ 119 µM)	MIC [2]: 16 mg/L (≈ 29.6 µM); MIC (S. aureus ATCC 29213; S. aureus ATCC 29213): 0.25 mg/L (≈ 0.463 µM); MIC (H. influenzae ATCC 49247; H. influenzae ATCC 49247): 16 mg/L (≈ 29.6 µM); MIC [3]: 16 mg/L (≈ 29.6 µM); MIC (E. coli MP-9 ΔTolC): 4 mg/L (≈ 7.41 µM); MIC (S. pyogenes ATCC 19615): ≤0.06 mg/L; MIC [4, 16]: 4 mg/L (≈ 7.41 µM)
CSC1O[C@H]([C@H](NC(=O)[C@H]2NC[C@@H]3C[C@H](c4ccc(C#N)cc4)CCO[C@H]32)[C@H](C)Cl)C(O)[C@@H](O)[C@H]1O (stereo partly drawn) [FSA-512081b]	0.25 mg/L (≈ 0.463 µM)	1 mg/L (≈ 1.85 µM)		128 mg/L (≈ 237 µM)	≤ 0.06 mg/L	32 mg/L (≈ 59.3 µM)	1 mg/L (≈ 1.85 µM)	8 mg/L (≈ 14.8 µM)	≤ 0.06 mg/L	0.12 mg/L (≈ 0.222 µM)		1 mg/L (≈ 1.85 µM)	16 mg/L (≈ 29.6 µM)		128 mg/L (≈ 237 µM)	128 mg/L (≈ 237 µM)	MIC [2]: 32 mg/L (≈ 59.3 µM); MIC [4]: 16 mg/L (≈ 29.6 µM)
